# Measured values reported in paper PMC10903759 (Journal of Genetic Engineering & Biotechnology, 2024).
# Where no end group is shown, it is not given here.
# Tested on: leaf rust (Puccinia triticina, CCDS-96-14-1 isolate) urediniospores
# Format: cell-based
sequence,measurement,value
KEICCKELTKPVKCSSDPLCQKLCMEKEKYEDGHCFTILSKCLCMKRCNAKTLATELLA (disulfide (positions not given here)) [CaThi],germination rate of urediniospores,22.73 % ± 7.39
